These results are taken from US20240350430A1, “GROWTH INHIBITOR OF METASTATIC HUMAN PROSTATE CANCER CELLS” (Watanabe Oyster Laboratory Co., Ltd., priority 2021, published 2024).

Format in all cases: cell-based, human
Test [1] deals with PC-3 cells. In words: Cell growth of PC-3 cells (cell counting). To be noted: three days; for cell growth in the presence of cell cycle inhibitor alone: roscovitine 10 or 100 nM, butyrate 10 or 100 μM, sulforaphane 1 or 10 nM. As to the method:
(§1) The PC-3 and DU-145 cells (the cell number of 1×10^5/in 1 ml of a culture fluid per hole using a 24-hole plate) were cultured in a DMEM culture fluid (containing 10% of FBS, 1% of P/S, and 1% of fungizone) containing the DHMBA (1 and 10 μM) under 5% of CO2, at 37° C., for one, two, three, four, and six days. […] After the culture, 0.1 ml of 0.05% trypsin-EDTA solution obtained by dissolving the cells adhering to the bottom surface of the culture dish in PBS (Thermo Fisher Scientific, Waltham, MA, USA) not containing Ca^2+/Mg^2+ was added, incubation was performed at 37° C. for two minutes to release the adhering cells, and 0.9 ml of the DMEM culture fluid containing 10% of FBS and 1% of P/S was added to stop the reaction. The cell number in the cell suspension was counted by the method described in the item of “Measurement of Cell Number.”
(§2) After the culture of the cells, 0.1 ml of 0.05% trypsin-EDTA solution obtained by dissolving the cells adhering to the bottom surface of the culture dish in PBS (Thermo Fisher Scientific, Waltham, MA, USA) not containing Ca^2+/Mg^2+ was added, incubation was performed at 37° C. for two minutes to release the adhering cells, and 0.9 ml of the DMEM culture fluid containing 10% of FBS and 1% of P/S was added to stop the reaction. The visible cells were counted by the Olympus MTV-3 microscope using a hemocytometer (Sigma-Aldrich).
FIG. 1(C) is a diagram in which the PC-3 cells (1×10^5 cells/per well of a 24-well plate) were cultured under 5% of CO2, at 37° C., for one to six days in a DMEM culture fluid (containing 10% of FBS, 1% of P/S, and 1% of fungizone) containing the DHMBA (10 μM).
In FIGS. 1(D) and 1(E), the PC-3 cells (1×10^5 cells/per well of a 24-well plate) were cultured under 5% of CO2, at 37° C., for three (FIG. 1D) and six (FIG. 1E) days in a DMEM culture fluid (containing 10% of FBS, 1% of P/S, and 1% of fungizone) containing the DHMBA (0.01, 0.1, 1, 10, 100, and 1000 μM). After the culture, the cells adhered to the bottom surface of the dish were removed and counted. […] 1-way ANOVA, Tukey-Kramer post-test.
FIGS. 3(A) and 3(B) are diagrams in which the PC-3 cells (1×10^5 cells/ml/per well of a 24-well plate) were cultured under 5% of CO2, at 37° C., for three days in a DMEM culture fluid (containing 10% of FBS, 1% of P/S, and 1% of fungizone) containing the DHMBA (10 μM) containing cell cycle inhibitors, roscovitine (10 and 100 nM), butyrate (10 and 100 μM), and sulforaphane (1 and 10 nM).
After the culture, the cells adhered to the dish were removed and counted. […] 1-way ANOVA, Tukey-Kramer post-test.
In the drawing, the PC-3 cells (1×10^5/in 1 ml of a culture fluid per hole using a 24-hole plate) were cultured under 5% of CO2, at 37° C., for three days in a DMEM culture fluid (containing 10% of FBS, 1% of P/S, and 1% of fungizone) in the presence of the DHMBA (10 μM) and an aryl hydrocarbon receptor inhibitor CH223191 (1, 10, or 25 μM) to examine the action on cell growth.

For the next test, the system named is DU-145 cells. In words: Cell growth of DU-145 cells (cell counting). Conditions: three days, roscovitine 10 or 100 nM, butyrate 10 or 100 μM, sulforaphane 1 or 10 nM. As to the method:
as §1, §2
FIG. 2(C) is a diagram in which the DU-145 cells (1×10^5 cells/per well of a 24-well plate) were cultured under 5% of CO2, at 37° C., for one to six days in a DMEM culture fluid (containing 10% of FBS, 1% of P/S, and 1% of fungizone) containing the DHMBA (10 μM).
In FIGS. 2(D) and 2(E), the DU-145 cells (1×10^5 cells/per well of a 24-well plate) were cultured under 5% of CO2, at 37° C., for three (FIG. 2D) and six (FIG. 2E) days in a DMEM culture fluid (containing 10% of FBS, 1% of P/S, and 1% of fungizone) containing the DHMBA (0.01, 0.1, 1, 10, 100, and 1000 μM). After the culture, the cells adhered to the dish were removed and counted. […] 1-way ANOVA, Tukey-Kramer post-test.

Test [2] relates to PC-3 cells. In words: Cell death of sub-confluent PC-3 cells (adherent cell counting). As to the method: The PC-3 and DU-145 cells (1×10^5/in 1 ml of a culture fluid per hole using a 24-hole plate) were cultured in a DMEM culture fluid (containing 10% of FBS, 1% of P/S, and 1% of fungizone) under 5% of CO2, at 37° C., for three days, and when the cells reached sub-confluence, the culture fluid was exchanged for the one containing the DHMBA (0.01, 0.1, 1, 10, 100, or 1000 μM), and the cells were cultured for 24 and 48 hours. After the culture, the cells adhering to the bottom surface of the dish were removed and counted. In another experiment, after the culture for three days, when the cells reached sub-confluence, the culture fluid was exchanged for a culture fluid containing the DHMBA (1 or 10 μM) and a caspase-3 inhibitor (10 μM), and the cells were counted after the culture for 48 hours. Further, after the culture for three days, when the cells reached sub-confluence, the culture fluid was exchanged for a culture fluid obtained by adding gemcitabine (0.1, 1, 10, 50 or 100 nM) or CH223191 (1, 10, and 25 μM) to a DMEM culture fluid containing the DHMBA (1 or 10 μM) or not containing the DHMBA, and the cells were counted after the culture for 48 hours.
as §2
In the drawing, the PC-3 (FIGS. 5(A) and 5(B)) and DU-145 (FIGS. 5(D) and 5(E)) cells (1×10^5/in 1 ml of a culture fluid per hole using a 24-hole plate) were cultured under 5% of CO2, at 37° C., for three days in a DMEM culture fluid (containing 10% of FBS, 1% of P/S, and 1% of fungizone), and when the cells reached sub-confluence, the culture fluid was exchanged for the one containing the DHMBA (0.01, 0.1, 1, 10, 100, or 1000 μM), and the cells were cultured for 24 and 48 hours. In the drawing, after the culture, the cells adhering to the dish were counted.
In another experiment, after the culture for three days, when the cells reached sub-confluence, for the PC-3 (FIG. 5(C)) or DU-145 (FIG. 5(F)) cells, the culture fluid was exchanged for a culture fluid containing the DHMBA (1 or 10 μM) and a caspase-3 inhibitor (10 μM), and the cells were counted after the culture for 48 hours. Further, after the culture for three days, when the cells reached sub-confluence, the culture fluid was exchanged for a culture fluid obtained by adding gemcitabine (0.1, 1, 10, 50 or 100 nM) or CH223191 (1, 10, and 25 μM) to a DMEM culture fluid containing the DHMBA (1 or 10 μM) or not containing the DHMBA, and the cells were counted after the culture for 48 hours. After the culture, the cells adhered to the dish were removed and counted. Each piece of data is shown with a mean value and a standard deviation of values obtained from eight wells of the different cultured cells. *p<0.001, comparison with the control (gray bar). 1-way ANOVA, Tukey-Kramer post-test.
The PC-3 cells (1×10^5/in 1 ml of a culture fluid per hole using a 24-hole plate) were cultured under 5% of CO2, at 37° C., for three days in a DMEM culture fluid (containing 10% of FBS, 1% of P/S, and 1% of fungizone), and when the cells reached sub-confluence, the culture fluid was exchanged for the one containing the gemcitabine (1, 10, 50, 100, or 250 nM), and the cells were cultured for 48 hours. In the drawing, after the culture, the cells adhering to the dish were counted.
After the culture for three days, when the cells reached sub-confluence, the culture fluid was exchanged for a culture fluid containing the DHMBA (1 or 10 μM) and gemcitabine (1, 10, or 100 nM), and the cells were counted after the culture for 48 hours. […]

As for `COc1cccc(-c2cc(=O)c3ccccc3o2)c1N` [PD98059, reference compound], in the test on PC-3 cells [1] (wortmannin 10 or 100 nM, PD98059 1 or 10 μM, staurosporine 1 or 10 nM), the “cell growth in the presence of intracellular signaling inhibitor alone” value is reported as “inhibited”. `CC[C@H](CO)Nc1nc(NCc2ccccc2)c2ncn(C(C)C)c2n1` [roscovitine, reference compound]: the “cell growth in the presence of cell cycle inhibitor alone” value in the test on PC-3 cells [1] and in the test with DU-145 cells was “inhibited” throughout. On to `Nc1ccn([C@@H]2O[C@H](CO)[C@@H](O)C2(F)F)c(=O)n1` [gemcitabine, reference compound], for which, in the test with PC-3 cells [2] (gemcitabine 1, 10, 50, 100, and 250 nM, three days as printed), the “cell death by gemcitabine alone” value was “significant cell deaths”. For the compound `C[S+]([O-])CCCCN=C=S` (centres unmarked) [sulforaphane, reference compound], the “cell growth in the presence of cell cycle inhibitor alone” value in the test with PC-3 cells [1] and with DU-145 cells was “inhibited” each time. Take `Cc1ccccc1N=Nc1ccc(NC(=O)c2ccnn2C)c(C)c1` [CH223191, 2-Methyl-2H-pyrazole-3-carboxylic acid (2-methyl-4-o-tolylazo-phenyl)-amide, reference compound]: the “action of CH223191 alone on cell growth” value with PC-3 cells [1] (CH223191 1, 10, or 25 μM) is given as “no significant effect”. In the test on PC-3 cells [2] (sub-confluent, CH223191 1, 10, or 25 μM, 48 hours), the “cell death induction by CH223191 alone” value is given as “did not cause the cell death induction”.
